Test results taken from patent US20120156648A1, “APPARATUS AND METHOD FOR DELIVERING A THERAPEUTIC AGENT TO DENTAL TISSUE” (BUCKEYE DENTAL, LLC, priority 2010, published 2012).

Assay: In vitro model of drug delivery: HP gel into extracted human teeth by MACROESIS vs diffusion, HP eluted into water measured by colorimetric kit / UV-Vis at 550 nm
Assay type: in vitro ADME
Conditions: for HP concentration in receiving medium (distilled water): below threshold of reliable detection, excluded from analysis
Protocol: MACROESIS™ drug delivery system uses an AC electrical field to push active pharmaceutical agents through biological membranes, such as peroxide gels into the layers of tooth enamel. Current methods of chair-side whitening involve applying a gel which is either self-activating, or activated by heat or UV. Another alternative involves custom trays containing the whitening agent obtained from a dentist used over a 7-10 day period at home (30 min to 2 hours per application). An in vitro model of drug delivery was used in a validity study investigating the delivery of a 35% Carbamide Peroxide gel into extracted human teeth by MACROESIS™.
Fourteen (14) freshly extracted human teeth without detectable caries or restoration were stored in distilled water at 4° C. and used within 1 month of extraction. Teeth were randomly assigned to the diffusion experimental group (6 teeth) or enhanced electrochemical delivery (MACROESIS™) experimental group (6 teeth). Two teeth were randomly assigned to a control group. The experiment was run in two rounds of six teeth each (3 from each treatment group) approximately two weeks apart to show repeatability of results.
The diffusion group received: 66±1 mg 6% HP gel applied evenly to the tooth surface for 20 minutes. The MACROESIS™ group received: 66±1 mg 6% HP gel applied evenly to the tooth surface for 20 minutes using the electrochemical drug delivery device and electrode (FIG. 5A-C). The control group contained one control tooth subjected to the diffusion treatment and one control tooth subjected to the MACROESIS™ treatment.
Following treatment, the teeth were rinsed twice in distilled water and dried. The outer surface of the teeth was covered with two layers of clear nail varnish to fill any defects. […]
The amount of H2O2 that diffused from the dentin was measured by a colorimetric oxidation-reduction reaction kit (HYDROGEN PEROXIDE CHEMets®, VACUettes® and Vacu-vials®, CHEMetrics, Inc., Calverton, Va.). HP concentration was measured by UV-Vis spectroscopy at 550 nm.

Question: With `OO` [HP, H2O2] as the compound, how does the “HP concentration in receiving medium (distilled water)” value (1-hour samples) read?
Answer: The value was less than 0.1 PPM.

Question: And the “HP concentration in receiving medium (distilled water)” value (48-hour samples)?
Answer: Its value is less than 0.1 PPM.

Question: And the “time in which the majority of the HP eluted from the teeth into the water” value (receiving medium removed at 1 hour, 24 hours and 48 hours)?
Answer: The value was “between 1 hour and 24 hours”.
